Starred links: 1 amine or outer side, 2 acyl side, 3 side chain; linkers in the order of their positions; H or OH if unused. Positions of bridges follow the written chain, without caps; N, C: chain ends. Non-standard residues stand in square brackets, D forms with d. Residues, ends and D or L forms follow the SMILES beside them. *: point of attachment. NMeAbu(3,3-F2-piperidino) = CN[C@@H](CCN1CCCC(F)(F)C1)C(=O)O; X13 = O=C([C@@H]1C[C@H](N2CCC(F)(F)CC2)CN1[*:1])[*:2]; X4 = O=C([C@@H]1C[C@@H](N2CCC(F)(F)CC2)CN1[*:1])[*:2]; Glu(NHSO2Me) = CS(=O)(=O)NC(=O)CC[C@H](N)C(=O)O; NMePhe(3-Cl) = CN[C@@H](Cc1cccc(Cl)c1)C(=O)O; X12 = CCCC[C@@H](O)[C@H](N[*:1])C(=O)[*:2]; hhPhe = N[C@@H](CCCc1ccccc1)C(=O)O; Hyp = O=C(O)[C@@H]1C[C@@H](O)CN1; NMeF = CN[C@@H](Cc1ccccc1)C(=O)O; NMeI = CC[C@H](C)[C@H](NC)C(=O)O; hPhe = N[C@@H](CCc1ccccc1)C(=O)O; NMeD = CN[C@@H](CC(=O)O)C(=O)O; NMeL = CN[C@@H](CC(C)C)C(=O)O; dNMeL = CN[C@H](CC(C)C)C(=O)O; NMeV = CN[C@H](C(=O)O)C(C)C; NMeA = CN[C@@H](C)C(=O)O; Piperidide = C1CCN(*)CC1; Me2NCH2CH2 = CN(C)CC*; NBuGly = CCCCNCC(=O)O; NPrGly = CCCNCC(=O)O; Ethyl(2-OH) = OCC*; Bn = c1ccc(C*)cc1; Sar = CNCC(=O)O; tBu = CC(C)(C)*

One data set in a line: Caco-2 membrane permeability, improved method as used in the following Examples (96-well, 20 to 24 h preincubation). It is filed as in vitro ADME. The settings on record: human, Caco-2, Caco-2. In outline:
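Papp (cm/sec) was derived from LC/MS of basal samples collected 180 min after apical dosing in FaSSIF/HBSS pH 6.0 with 1% DMSO, against a basal HBSS pH 7.4 receiver containing 4% BSA. Three-week Caco-2 cultures were first preincubated with compound in DMEM+FaSSIF at 37 °C for 20–24 h.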
In general terms: Caco-2 cells form a polarised layer with tight junctions and transporters.
The molecule `CC(C)C[C@H]1C(=O)N[C@@H](COC(C)(C)C)C(=O)N(C)[C@@H](Cc2ccccc2)C(=O)N(C)[C@@H](C(C)C)C(=O)N[C@H](C(=O)N2CCCCC2)CC(=O)N[C@H](C(C)C)C(=O)N(C)[C@@H](CC(C)C)C(=O)N[C@@H](COc2ccccc2Cl)C(=O)N(C)[C@@H](C)C(=O)N[C@@H]([C@@H](C)O)C(=O)N(C)CC(=O)N1C` [pd339] had a Papp A→B at 180 min of 2.6 ×10⁻⁶ cm/s.
With `CCCC[C@@H](O)[C@@H]1NC(=O)[C@H](CC(C)C)N(C)C(=O)[C@H](C)NC(=O)[C@H](Cc2ccccc2)N(C)C(=O)[C@@H](C(C)C)NC(=O)C[C@@H](C(=O)N2CCCCC2)NC(=O)[C@H](C)N(C)C(=O)[C@H](Cc2ccccc2)N(C)C(=O)[C@H](COC(C)(C)C)NC(=O)[C@H](CC(C)C)N(C)C(=O)CN(C)C1=O` [pd467] ([dV][NMeF]A[NMeL][X12][Sar][NMeL]S(tBu)[NMeF][NMeA]D-Piperidide; lactam N-11), the Papp A→B at 180 min is 1.4 ×10⁻⁶ cm/s.
Still for that read-out and setting: under `CC[C@H](C)[C@H]1C(=O)N[C@@H](C(C)C)C(=O)N(C)CC(=O)N(C)[C@@H](CC(C)C)C(=O)N[C@H](C(=O)N2CCCCC2)CC(=O)N(C)[C@@H](C)C(=O)N[C@@H](COCCO)C(=O)N(C)[C@H](CC(C)C)C(=O)N(C)[C@@H](Cc2ccccc2)C(=O)N[C@@H](CC(C)C)C(=O)N(C)[C@@H](Cc2ccccc2)C(=O)N1C` [pd500] ([NMeA]S(Ethyl(2-OH))[dNMeL][NMeF]L[NMeF][NMeI]V[Sar][NMeL]D-Piperidide; lactam N-11) stands 2.2 ×10⁻⁶ cm/s.
Still for that read-out and setting: under `CCO[C@@H]1C[C@H]2C(=O)N[C@@H]([C@@H](C)O)C(=O)N(C)[C@@H](CC(C)C)C(=O)N(C)[C@@H](CC(C)C)C(=O)N(C)[C@@H](CC(C)C)C(=O)N[C@H](C(=O)N3CCCCC3)CC(=O)N[C@H](CC(C)C)C(=O)N(C)[C@@H]([C@@H](C)CC)C(=O)N3CCC[C@H]3C(=O)N(C)[C@@H](CC(C)C)C(=O)N[C@@H](COC(C)(C)C)C(=O)N2C1` [pd385] ([dL][NMeI]P[NMeL]S(tBu)[Hyp](Et)T[NMeL][NMeL][NMeL]D-Piperidide; lactam N-11) stands 3.4 ×10⁻⁶ cm/s; under `CCCN1CC(=O)N(C)[C@@H](CC(C)C)C(=O)N[C@@H](COCCN(C)C)C(=O)N(C)[C@@H](Cc2ccccc2)C(=O)N(C)[C@@H](C(C)C)C(=O)N[C@H](C(=O)N2CCCCC2)CC(=O)N[C@H](C(C)C)C(=O)N(C)[C@@H](Cc2ccccc2)C(=O)N[C@@H](CC(C)C)C(=O)N(C)[C@@H](CC(C)C)C(=O)N[C@@H]([C@@H](C)O)C1=O` [pd52] ([dV][NMeF]L[NMeL]T[NPrGly][NMeL]S(Me2NCH2CH2)[NMeF][NMeV]D-Piperidide; lactam N-11), 0.12 ×10⁻⁶ cm/s; under `CC(C)C[C@H]1C(=O)N[C@H](C(=O)N2CCCCC2)CC(=O)N(C)[C@@H](C)C(=O)N[C@@H](CCCc2ccccc2)C(=O)N(C)[C@@H](CC(C)C)C(=O)N(C)[C@@H](Cc2ccccc2)C(=O)N[C@@H](C)C(=O)N(C)[C@@H](Cc2ccccc2)C(=O)N(C)[C@@H](C(C)C)C(=O)N[C@@H]([C@@H](C)O)C(=O)N(C)CC(=O)N1C` [pd365] ([NMeA][hhPhe][NMeL][NMeF]A[NMeF][NMeV]T[Sar][NMeL]D-Piperidide; lactam N-11), 1.5 ×10⁻⁶ cm/s.
Turning to `CCCCN1CC(=O)N(C)[C@@H](C(C)C)C(=O)N[C@H](C(=O)N2CCCCC2)CC(=O)N(C)[C@@H](CC(C)C)C(=O)N[C@@H](CCC(=O)NS(C)(=O)=O)C(=O)N(C)[C@@H](CC(C)C)C(=O)N(C)[C@@H](Cc2ccccc2)C(=O)N[C@@H](CC(C)C)C(=O)N(C)[C@@H](Cc2ccccc2)C(=O)N(C)[C@@H](CC(C)C)C(=O)N[C@@H]([C@@H](C)O)C1=O` [pd62] ([NMeL][Glu(NHSO2Me)][NMeL][NMeF]L[NMeF][NMeL]T[NBuGly][NMeV]D-Piperidide; lactam N-11), the Papp A→B at 180 min was less than 0.13 ×10⁻⁶ cm/s.
As to `CCCCN1CC(=O)N(C)[C@@H](CCN2CCCC(F)(F)C2)C(=O)N[C@H](C(=O)N2CCCCC2)CC(=O)N(C)[C@@H](C)C(=O)N[C@@H](CC(C)C)C(=O)N(C)[C@@H](CC(C)C)C(=O)N(C)[C@@H](Cc2ccccc2)C(=O)N[C@@H](CC(C)C)C(=O)N(C)[C@@H](Cc2ccccc2)C(=O)N(C)[C@@H](C)C(=O)N[C@@H]([C@@H](C)O)C1=O` [pd392] ([NMeA]L[NMeL][NMeF]L[NMeF][NMeA]T[NBuGly][NMeAbu(3,3-F2-piperidino)]D-Piperidide; lactam N-11), the Papp A→B at 180 min was 3.5 ×10⁻⁶ cm/s.
The same measure, in the same setting: the result for `CC(C)C[C@H]1C(=O)N[C@@H](COC(C)(C)C)C(=O)N(C)[C@@H](Cc2ccccc2)C(=O)N(C)[C@@H](CC(C)C)C(=O)N[C@H](C(=O)N2CCCCC2)CC(=O)N2C[C@H](N3CCC(F)(F)CC3)C[C@H]2C(=O)N(C)[C@@H](Cc2cccc(Cl)c2)C(=O)N[C@@H](C(C)C)C(=O)N(C)[C@@H](C(C)C)C(=O)N[C@@H]([C@@H](C)O)C(=O)N(C)CC(=O)N1C` [pd458] ([X4][NMePhe(3-Cl)]V[NMeV]T[Sar][NMeL]S(tBu)[NMeF][NMeL]D-Piperidide; lactam N-11) reads 1.2 ×10⁻⁶ cm/s; that for `CC(C)C[C@H]1C(=O)N[C@@H](COC(C)(C)C)C(=O)N(C)[C@@H](Cc2ccccc2)C(=O)N(C)[C@@H](CC(C)C)C(=O)N[C@H](C(=O)N2CCCCC2)CC(=O)N2C[C@@H](N3CCC(F)(F)CC3)C[C@H]2C(=O)N(C)[C@@H](Cc2cccc(Cl)c2)C(=O)N[C@@H](C(C)C)C(=O)N(C)[C@@H](C(C)C)C(=O)N[C@@H]([C@@H](C)O)C(=O)N(C)CC(=O)N1C` [pd461] ([X13][NMePhe(3-Cl)]V[NMeV]T[Sar][NMeL]S(tBu)[NMeF][NMeL]D-Piperidide; lactam N-11), 1.4 ×10⁻⁶ cm/s.
Same read-out and setting: the result for `CCO[C@@H]1C[C@H]2C(=O)N[C@@H](COC(C)(C)C)C(=O)N(C)[C@@H](CC(C)C)C(=O)N(C)[C@@H](CC(C)C)C(=O)N3CCC[C@H]3C(=O)N[C@@H]([C@@H](C)O)C(=O)N(C)[C@@H](Cc3ccccc3)C(=O)N[C@@H](Cc3ccccc3)C(=O)N(C)[C@@H](CC(C)C)C(=O)N[C@H](C(=O)N3CCCCC3)CC(=O)N[C@H](CC(C)C)C(=O)N2C1` [pd378] ([dL][Hyp](Et)S(tBu)[NMeL][NMeL]PT[NMeF]F[NMeL]D-Piperidide; lactam N-11) reads 1.2 ×10⁻⁶ cm/s; that for `CC(C)C[C@H]1C(=O)N(C)[C@@H](Cc2ccccc2)C(=O)N[C@H](C(=O)N2CCCCC2)CC(=O)N(C)[C@@H](C(C)C)C(=O)N[C@@H](C)C(=O)N(C)[C@@H](Cc2ccccc2)C(=O)N(C)[C@@H](CC(C)C)C(=O)N(C)CC(=O)N[C@@H]([C@@H](C)O)C(=O)N(C)[C@@H](C(C)C)C(=O)N[C@@H](CCc2ccccc2)C(=O)N1C` [pd311] ([NMeV]A[NMeF][NMeL][Sar]T[NMeV][hPhe][NMeL][NMeF]D-Piperidide; lactam N-11), 2.6 ×10⁻⁶ cm/s.

Staying with this data set, now noted: human, Caco-2, Caco-2 (cm/sec).
`CCCN1CC(=O)N(C)[C@@H](CC(C)C)C(=O)N[C@@H](COC(C)(C)C)C(=O)N(C)[C@@H](Cc2ccccc2)C(=O)N(C)[C@@H](Cc2ccccc2)C(=O)N[C@H](C(=O)N2CCCCC2)CC(=O)N[C@H](C)C(=O)N(C)[C@@H](Cc2ccccc2)C(=O)N[C@@H](C(C)C)C(=O)N(C)[C@@H](CC(C)C)C(=O)N[C@@H]([C@@H](C)O)C1=O` [pd194] ([dA][NMeF]V[NMeL]T[NPrGly][NMeL]S(tBu)[NMeF][NMeF]D-Piperidide; lactam N-11) registered a Papp A→B at 180 min of 5.3 ×10⁻⁶ cm/s.
Still for that read-out and setting: under `CC[C@H](C)[C@H]1C(=O)N[C@@H](Cc2c[nH]c3ccccc23)C(=O)N(C)CC(=O)N(C)[C@@H](C)C(=O)N[C@H](C(=O)N2CCCCC2)CC(=O)N(C)[C@@H](C)C(=O)N[C@@H](CC(C)C)C(=O)N(C)[C@@H](CC(C)C)C(=O)N(C)[C@@H](CC(C)C)C(=O)N[C@@H](C)C(=O)N(C)[C@@H](CC(C)C)C(=O)N1C` [pd101] ([NMeA]L[NMeL][NMeL]A[NMeL][NMeI]W[Sar][NMeA]D-Piperidide; lactam N-11) stands 0.13 ×10⁻⁶ cm/s; under `CC(C)C[C@H]1C(=O)N[C@@H](COC(C)(C)C)C(=O)N(C)[C@@H](Cc2ccccc2)C(=O)N(C)[C@@H](CC(C)C)C(=O)N(C)[C@H](C(=O)N2CCCCC2)CC(=O)N(C)[C@@H](C)C(=O)N(C)[C@@H](Cc2cccc(Cl)c2)C(=O)N[C@@H](C(C)C)C(=O)N(C)[C@@H](C(C)C)C(=O)N[C@@H]([C@@H](C)O)C(=O)N(C)CC(=O)N1C` [pd169] ([NMeA][NMePhe(3-Cl)]V[NMeV]T[Sar][NMeL]S(tBu)[NMeF][NMeL][NMeD]-Piperidide; lactam N-11), 3.8 ×10⁻⁶ cm/s; under `CC[C@H](C)[C@@H]1NC(=O)[C@H](Cc2ccccc2)N(C)C(=O)[C@@H](C)NC(=O)C[C@@H](C(=O)N2CCCCC2)NC(=O)[C@H](CC(C)C)N(C)C(=O)[C@H](C)N(C)C(=O)[C@H](COC(C)(C)C)NC(=O)[C@H](C)N(C)C(=O)CN(C)C(=O)[C@H](Cc2ccc(O)cc2)NC(=O)[C@H](CC(C)C)N(C)C1=O` [pd112] ([dA][NMeF]I[NMeL]Y[Sar][NMeA]S(tBu)[NMeA][NMeL]D-Piperidide; lactam N-11), 0.11 ×10⁻⁶ cm/s.

Staying with this data set, now noted: human; Papp, Caco-2 membrane permeability, improved method; read-out: Caco-2.
Take `CC(C)C[C@@H]1NC(=O)[C@H](C)N(C)C(=O)C[C@@H](C(=O)N2CCCCC2)NC(=O)[C@H](CC(C)C)N(C)C(=O)CN(C)C(=O)[C@H]([C@@H](C)O)NC(=O)[C@H](C)N(C)C(=O)[C@H](Cc2ccccc2)N(C)C(=O)[C@H](COCc2ccccc2)NC(=O)[C@H](Cc2ccccc2)N(C)C(=O)[C@H](CC(C)C)N(C)C1=O` [pd368] ([NMeA]L[NMeL][NMeF]S(Bn)[NMeF][NMeA]T[Sar][NMeL]D-Piperidide; lactam N-11): the Papp A→B at 180 min is 2 ×10⁻⁶ cm/s.

Source of the values: patent publication US20200131669A1, “CYCLIC PEPTIDE COMPOUND HAVING HIGH MEMBRANE PERMEABILITY, AND LIBRARY CONTAINING SAME” (Chugai Seiyaku Kabushiki Kaisha, priority 2017, published 2020).
